Results reported in patent publication US10786484B2, “Mono- or di-substituted indole derivatives as dengue viral replication inhibitors” (Janssen Pharmaceuticals, Inc., priority 2015, dated 2020).

How the values were obtained:
DENV-3 strain H87 = experiment: Tetravalent RT-qPCR assay Protocol A, serotype 3; type: cell-based; conditions: Dengue virus, DENV3, 72 h; RT-qPCR serotype 3 H87, Vero cells, day 3
Procedure: (§1) The antiviral activity of the compounds of the invention was tested against DENV-1 strain TC974#666 (NCPV), DENV-2 strain 16681, DENV-3 strain H87 (NCPV) and DENV-4 strains H241 (NCPV) and EDEN (SG/06K2270DK1/2005; GenBank accession number QG398256) in a RT-qPCR assay. Therefore, Vero cells were infected with either DENV-1, or -2, or -3, or -4 in the presence or absence of test compounds. At day 3 post-infection, the cells were lysed and cell lysates were used to prepare cDNA of both a viral target (the 3′UTR of DENV; Table 2) and a cellular reference gene (β-actin, Table 2). Subsequently, a duplex real time PCR was performed on a Lightcycler480 instrument. The generated Cp value is inversely proportional to the amount of RNA expression of these targets. Inhibition of DENV replication by a test compound results in a shift of Cp's for the 3′UTR gene. On the other hand, if a test compound is toxic to the cells, a similar effect on β-actin expression will be observed. The comparative ΔΔCp method is used to calculate EC50, which is based on the relative gene expression of the target gene (3′UTR) normalized with the cellular housekeeping gene (β-actin). In addition, CC50 values are determined based on the Cp values acquired for the housekeeping gene β-actin.
(§2) The culture medium consisted of minimal essential medium supplemented with 2% of heat-inactivated fetal calf serum, 0.04% gentamycin (50 mg/mL) and 2 mM of L-glutamine. Vero cells, obtained from ECACC, were suspended in culture medium and 75 μL/well was added in 96-well plates (10000 cells/well), which already contain the antiviral compounds. […] In addition, each plate contains wells which are assigned as virus controls (containing cells and virus in the absence of compound) and cell controls (containing cells in the absence of virus and compound). Once the cells were added in the plates, the plates were incubated in a fully humidified incubator (37° C., 5% CO2) until the next day. Dengue viruses serotype-1, 2, 3 and 4 were diluted in order to obtain a Cp of ˜22-24 in the assay. Therefore, 25 μL of virus suspension, was added to all the wells containing test compound and to the wells assigned as virus control. In parallel, 25 μL of culture medium was added to the cell controls. Next, the plates were incubated for 3 days in a fully humidified incubator (37° C., 5% CO2). After 3 days, the supernatant was removed from the wells and the cells were washed twice with ice-cold PBS (−100 μL). The cell pellets within the 96-well plates were stored at −80° C. for at least 1 day. Next, RNA was extracted using the Cells-to-CT™ lysis kit, according to the manufacturer's guideline (Life Technologies). The cell lysates can be stored at −80° C. or immediately used in the reverse transcription step.
(§3) In preparation of the reverse transcription step, mix A (table 3A) was prepared and 7.57 μL/well was dispensed in a 96-well plate. After addition of 5 μL of the cell lysates, a five minute denaturation step at 75° C. was performed (table 3B). Afterwards, 7.43 μL of mix B was added (table 3C) and the reverse transcription step was initiated (table 3D) to generate cDNA.
(§4) Finally, a RT-qPCR mix was prepared, mix C (table 4A), and 22.02 μL/well was dispensed in 96-well LightCycler qPCR plates to which 3 μL of cDNA was added and the qPCR was performed according to the conditions in table 4B on a LightCycler 480.
(§5) Using the LightCycler software and an in-house LIMS system, dose response curves for each compound were calculated and the half maximal effective concentration (EC50) and the half maximal cytotoxic concentration (CC50) were determined (Tables 5-8).

[1] = tested on: DENV-4 strain EDEN (SG/06K2270DK1/2005); experiment: Tetravalent RT-qPCR assay Protocol A, serotype 4 EDEN; type: cell-based; conditions: Dengue virus, DENV4, 72 h; RT-qPCR serotype 4 EDEN, Vero cells, day 3
Procedure: as §1, §2, §3, §4, §5

[2] = tested on: DENV-2 16681 strain labeled with eGFP; experiment: DENV-2 antiviral assay (eGFP fluorescence read-out in Vero cells); type: cell-based, Dengue virus; conditions: DENV-2 16681 eGFP, MOI 0.5, 3 days
Procedure: The antiviral activity of all the compounds of the invention was tested against the DENV-2 16681 strain which was labeled with enhanced green fluorescent protein (eGPF). The culture medium consists of minimal essential medium supplemented with 2% of heat-inactivated fetal calf serum, 0.04% gentamycin (50 mg/mL) and 2 mM of L-glutamine. Vero cells, obtained from ECACC, were suspended in culture medium and 25 μL was added to 384-well plates (2500 cells/well), which already contain the antiviral compounds. Typically, these plates contain a 5-fold serial dilution of 9 dilution steps of the test compound at 200 times the final concentration in 100% DMSO (200 nL). […] Finally, each plate contains wells which are assigned as virus controls (containing cells and virus in the absence of compound), cell controls (containing cells in the absence of virus and compound) and medium controls (containing medium in the absence of cells, virus and compounds). To the wells assigned as medium control, 25 μL of culture medium was added instead of Vero cells. Once the cells were added to the plates, the plates were incubated for 30 minutes at room temperature to allow the cells to distribute evenly within the wells. Next, the plates were incubated in a fully humidified incubator (37° C., 5% CO2) until the next day. Then, DENV-2 strain 16681, labeled with eGFP, was added at a multiplicity of infection (MOI) of 0.5. Therefore, 15 μL of virus suspension was added to all the wells containing test compound and to the wells assigned as virus control. In parallel, 15 μL of culture medium was added to the medium and cell controls. Next, the plates were incubated for 3 days in a fully humidified incubator (37° C., 5% CO2). At the day of the read out, the eGFP fluorescence was measured using an automated fluorescence microscope at 488 nm (blue laser). Using an in-house LIMS system, inhibition dose response curves for each compound were calculated and the half maximal effective concentration (EC50) was determined. Therefore, the percent inhibition (I) for every test concentration is calculated using the following formula: I=100*([…])/(SVC−SCC); ST, SCC and SVC are the amount of eGFP signal in the test compound, cell control and virus control wells, respectively. The EC50 represents the concentration of a compound at which the virus replication is inhibited with 50%, as measured by a 50% reduction of the eGFP fluorescent intensity compared to the virus control. The EC50 is calculated using linear interpolation (Table 1).

in vitro [3] = conditions: African green monkey
DENV-4 strain H241 = experiment: Tetravalent RT-qPCR assay Protocol A, serotype 4 H241; type: cell-based; conditions: Dengue virus, DENV4, 72 h; RT-qPCR serotype 4 H241, Vero cells, day 3
Procedure: as §1, §2, §3, §4, §5

DENV-2 strain 16681 = experiment: Tetravalent RT-qPCR assay Protocol A, serotype 2; type: cell-based; conditions: Dengue virus, DENV2, 72 h; RT-qPCR serotype 2 16681, Vero cells, day 3
Procedure: as §1, §2, §3, §4, §5

DENV-1 strain TC974#666 = experiment: Tetravalent RT-qPCR assay Protocol A, serotype 1; type: cell-based; conditions: Dengue virus, DENV1, 72 h; RT-qPCR serotype 1 TC974#666, Vero cells, day 3
Procedure: as §1, §2, §3, §4, §5

Vero cells = conditions: African green monkey
in vitro [4] = type: cell-based; conditions: African green monkey, CC50
Procedure: as §1, §2, §5

For COc1cc(NC(C(=O)c2c[nH]c3cc(F)ccc23)c2ccc(F)cc2OCCO)cc(S(C)(=O)=O)c1 (single isomer, unassigned) [Compound 1A, 1-(6-fluoro-1H-indol-3-yl)-2-(4-fluoro-2-(2-hydroxyethoxy)phenyl)-2-((3-methoxy-5-(methylsulfonyl)phenyl)amino)ethanone], the EC50 (DENV-3 strain H87) was 68 nM, the EC50 [1] was 3.6 nM and the EC50 [2] was 0.78 nM. The CC50 (in vitro [3]) was 8600 nM, the EC50 (DENV-4 strain H241) was 290 nM and the EC50 (DENV-2 strain 16681) was 1.1 nM. For the same compound, the EC50 (DENV-1 strain TC974#666) was 8.5 nM.
For COc1cc(NC(C(=O)c2c[nH]c3cc(Cl)ccc23)c2ccc(F)cc2OCCO)cc(S(C)(=O)=O)c1 (single isomer, unassigned) [Compound 2A, 1-(6-chloro-1H-indol-3-yl)-2-(4-fluoro-2-(2-hydroxyethoxy)phenyl)-2-((3-methoxy-5-(methylsulfonyl)phenyl)amino)-ethanone], the EC50 (DENV-3 strain H87) was 48 nM, the EC50 [1] was 2.3 nM and the EC50 [2] was 0.32 nM. It also gave an EC50 (DENV-4 strain H241) of 170 nM, an EC50 (DENV-2 strain 16681) of 0.4 nM and a CC50 (Vero cells) of 4900 nM. It also gave a CC50 at 3 days (in vitro [4]) of 4800 nM and an EC50 (DENV-1 strain TC974#666) of 2.8 nM.
COc1cc(NC(C(=O)c2c[nH]c3c(C)c(F)ccc23)c2ccc(F)cc2OCCO)cc(S(C)(=O)=O)c1 (single isomer, unassigned) [Compound 3A, 2-(4-fluoro-2-(2-hydroxyethoxy)phenyl)-1-(6-fluoro-7-methyl-1H-indol-3-yl)-2-((3-methoxy-5-(methylsulfonyl)phenyl)amino)ethanone] showed an EC50 (DENV-3 strain H87) of 45 nM, an EC50 [1] of 5.1 nM and an EC50 [2] of 0.4 nM. The EC50 (DENV-4 strain H241) was 190 nM, the EC50 (DENV-2 strain 16681) was 0.43 nM and the CC50 (Vero cells) was 4000 nM. For the same compound, the CC50 at 3 days (in vitro [4]) was greater than 2500 nM and the EC50 (DENV-1 strain TC974#666) was 3.3 nM.
Work on COc1cc(NC(C(=O)c2c[nH]c3c(C)c(Cl)ccc23)c2ccc(F)cc2OCCO)cc(S(C)(=O)=O)c1 (single isomer, unassigned) [Compound 4B, 1-(6-chloro-7-methyl-1H-indol-3-yl)-2-(4-fluoro-2-(2-hydroxyethoxy)phenyl)-2-((3-methoxy-5-(methylsulfonyl)phenyl)amino)ethanone] yielded an EC50 (DENV-3 strain H87) of 55 nM, an EC50 [1] of 3.2 nM and an EC50 [2] of 0.2 nM. It also gave an EC50 (DENV-4 strain H241) of 140 nM, an EC50 (DENV-2 strain 16681) of 0.21 nM and a CC50 (Vero cells) of 3800 nM. The CC50 at 3 days (in vitro [4]) was greater than 2500 nM and the EC50 (DENV-1 strain TC974#666) was 3.3 nM.
Compound COc1cc(NC(C(=O)c2c[nH]c3cc(OC)c(C)cc23)c2ccc(F)cc2OCCO)cc(S(C)(=O)=O)c1 (single isomer, unassigned) [Compound 6A, 2-(4-fluoro-2-(2-hydroxyethoxy)phenyl)-2-((3-methoxy-5-(methylsulfonyl)phenyl)amino)-1-(6-methoxy-5-methyl-1H-indol-3-yl)ethanone] has an EC50 (DENV-3 strain H87) of 43 nM, an EC50 [1] of 3.4 nM and an EC50 [2] of 0.47 nM. It also gave an EC50 (DENV-4 strain H241) of 110 nM, an EC50 (DENV-2 strain 16681) of 0.84 nM and a CC50 (Vero cells) of 5600 nM. The EC50 (DENV-1 strain TC974#666) was 3.5 nM.
COc1cc(NC(C(=O)c2c[nH]c3cc(F)c(C)cc23)c2ccc(F)cc2OCCO)cc(S(C)(=O)=O)c1 (single isomer, unassigned) [Compound 7A, 2-(4-fluoro-2-(2-hydroxyethoxy)phenyl)-1-(6-fluoro-5-methyl-1H-indol-3-yl)-2-((3-methoxy-5-(methylsulfonyl)phenyl)amino)ethanone] showed an EC50 (DENV-3 strain H87) of 20 nM, an EC50 [2] of 0.54 nM and an EC50 (DENV-4 strain H241) of 120 nM. The EC50 (DENV-2 strain 16681) was 0.77 nM, the CC50 (Vero cells) was 3100 nM and the CC50 at 3 days (in vitro [4]) was greater than 2400 nM. For the same compound, the EC50 (DENV-1 strain TC974#666) was 1.3 nM.
COc1cc(NC(C(=O)c2c[nH]c3c(C)cc(Cl)cc23)c2ccc(F)cc2OCCO)cc(S(C)(=O)=O)c1 (single isomer, unassigned) [Compound 9A, 1-(5-chloro-7-methyl-1H-indol-3-yl)-2-(4-fluoro-2-(2-hydroxyethoxy)phenyl)-2-((3-methoxy-5-(methylsulfonyl)phenyl)amino)ethanone] showed an EC50 (DENV-3 strain H87) of 16 nM, an EC50 [2] of 0.39 nM and an EC50 (DENV-4 strain H241) of 110 nM. The EC50 (DENV-2 strain 16681) was 0.61 nM, the CC50 (Vero cells) was 3200 nM and the CC50 at 3 days (in vitro [4]) was greater than 2500 nM. It also gave an EC50 (DENV-1 strain TC974#666) of 1.4 nM.
With COc1cc(NC(C(=O)c2c[nH]c3ccc(OC(F)(F)F)cc23)c2ccc(F)cc2OCCO)cc(S(C)(=O)=O)c1 (single isomer, unassigned) [Compound 10B, 2-(4-fluoro-2-(2-hydroxyethoxy)phenyl)-2-((3-methoxy-5-(methylsulfonyl)phenyl)amino)-1-(5-(trifluoromethoxy)-1H-indol-3-yl)ethanone] the EC50 (DENV-3 strain H87) was 2.1 nM, the EC50 [2] was 0.12 nM and the EC50 (DENV-4 strain H241) was 12 nM. The EC50 (DENV-2 strain 16681) was 0.057 nM, the CC50 (Vero cells) was 2600 nM and the CC50 at 3 days (in vitro [4]) was greater than 2500 nM. For the same compound, the EC50 (DENV-1 strain TC974#666) was 0.2 nM.
COc1cc(NC(C(=O)c2c[nH]c3c(C)cc(OC(F)(F)F)cc23)c2ccc(F)cc2OCCO)cc(S(C)(=O)=O)c1 (single isomer, unassigned) [Compound 12A, 2-(4-fluoro-2-(2-hydroxyethoxy)phenyl)-2-((3-methoxy-5-(methylsulfonyl)phenyl)amino)-1-(7-methyl-5-(trifluoromethoxy)-1H-indol-3-yl)ethanone] gave an EC50 (DENV-3 strain H87) of 3.2 nM, an EC50 [2] of 0.099 nM and an EC50 (DENV-4 strain H241) of 14 nM. For the same compound, the EC50 (DENV-2 strain 16681) was 0.075 nM, the CC50 (Vero cells) was 2200 nM and the CC50 at 3 days (in vitro [4]) was greater than 1000 nM. For the same compound, the EC50 (DENV-1 strain TC974#666) was 0.2 nM.
